Tests used:
Type in all cases: cell-based
wild type K-Ras = biological target: T1, wild type K-Ras (Homo sapiens, UniProt P01116); assay: G-LISA Ras activation, 293H cells transfected with Ras wild-type, EGF stimulated; settings: compound 1 hour, then 100 ng/ml EGF 2 minutes
T1 construct: expressed in transfected cells; host or cells: 293H cells
Outline: (§1)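 Mutant or wild-type Ras was expressed transiently in 293H cells, which were incubated 1 hour with compound across 3.125-25 μM. G-LISA on cold lysates gave Ras activation, wild-type cells having first been EGF-stimulated (100 ng/ml, 2 min).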

K-Ras G12D = biological target: T2, K-Ras G12D (Homo sapiens, UniProt P01116, G12D); assay: G-LISA Ras activation, 293H cells transfected with G12D mutant; settings: compound 1 hour
T2 construct: expressed in transfected cells; host or cells: 293H cells
Outline: as §1

[1] = test system: Ishikawa (K-Ras wild type cell line); assay: Viability assay (CellTiterBlue, 72 hr) Ishikawa; settings: Homo sapiens, GI50, CellTiterBlue, Ishikawa K-Ras wild-type
Outline: (§2)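 Cells were seeded at 1000 per well and allowed 18 hr at 37 °C in CO2 before compound addition (final DMSO 0.5%). After 72 hr exposure, CellTiterBlue was added for 3 hr and fluorescence read at Ex550/Em590. GI50 values were calculated against DMSO (100%) and 100 uM tamoxifen (0%) controls.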

[2] = test system: U87-MG (K-Ras wild type cell line); assay: Viability assay (CellTiterBlue, 72 hr) U87-MG; settings: Homo sapiens, U-87 MG, GI50, CellTiterBlue, U87-MG K-Ras wild-type
Outline: as §2

[3] = test system: HCC827 (K-Ras wild type cell line); assay: Viability assay (CellTiterBlue, 72 hr) HCC827; settings: Homo sapiens, GI50, CellTiterBlue, HCC827 K-Ras wild-type
Outline: as §2

[4] = test system: A375 (K-Ras wild type cell line); assay: Viability assay (CellTiterBlue, 72 hr) A375; settings: Homo sapiens, A-375, GI50, CellTiterBlue
Outline: as §2

Panc1-G12D = assay: Viability assay (CellTiterBlue, 72 hr) Panc1; settings: Homo sapiens, PANC-1, GI50, CellTiterBlue, Panc1 K-Ras G12D, read-out: 72 hr Cell Viability Panc1 (G12D)
Outline: as §2

Panc10.05-G12D = assay: Viability assay (CellTiterBlue, 72 hr) Panc10.05; settings: Homo sapiens, Panc1005, GI50, CellTiterBlue, Panc10.05 K-Ras G12D, read-out: 72 hr Cell Viability Panc10.05 (G12D)
Outline: as §2

HCT116-G31D = assay: Viability assay (CellTiterBlue, 72 hr) HCT116; settings: Homo sapiens, HCT-116, GI50, CellTiterBlue, HCT116 K-Ras G13D, read-out: 72 hr Cell Viability HCT116 (G13D)
Outline: as §2

[5] = test system: phospho-ERK in HCC827 (Wild-type); assay: In-Cell Western phospho-ERK, HCC827; settings: Homo sapiens, 1 h; HCC827, one hour treatment; read-out: In-Cell Western HCC827 (Wild-type) Erk (P)
Outline: (§3)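 EC50 values come from immunofluorescence quantitation of phosphorylated ERK or Akt in fixed cells exposed to compound for one hour at 0.5% DMSO. Maximal inhibition is defined by 1 uM BEZ235 for Akt and 1 uM MEK Inhibitor II for ERK.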

[6] = test system: phospho-ERK in A375 (Wild-type); assay: In-Cell Western phospho-ERK, A375; settings: Homo sapiens, A-375, 1 h; A375, one hour treatment; read-out: In-Cell Western A375 (Wild-type) Erk (P)
Outline: as §3

[7] = test system: phospho-Akt in A375 (Wild-type); assay: In-Cell Western phospho-Akt, A375; settings: Homo sapiens, A-375, 1 h; A375, one hour treatment; read-out: In-Cell Western A375 (Wild-type) Akt (P)
Outline: as §3

[8] = test system: phospho-ERK in Panc1 (G12D); assay: In-Cell Western phospho-ERK, Panc1; settings: Homo sapiens, PANC-1, 1 h; Panc1, one hour treatment; read-out: In-Cell Western Panc1 (G12D) Erk (P)
Outline: as §3

[9] = test system: phospho-Akt in Panc1 (G12D); assay: In-Cell Western phospho-Akt, Panc1; settings: Homo sapiens, PANC-1, 1 h; Panc1, one hour treatment; read-out: In-Cell Western Panc1 (G12D) Akt (P)
Outline: as §3

[10] = test system: phospho-ERK in Panc10.05 (G12D); assay: In-Cell Western phospho-ERK, Panc10.05; settings: Homo sapiens, Panc1005, 1 h; Panc10.05, one hour treatment; read-out: In-Cell Western Panc10.05 (G12D) Erk (P)
Outline: as §3

[11] = test system: phospho-Akt in Panc10.05 (G12D); assay: In-Cell Western phospho-Akt, Panc10.05; settings: Homo sapiens, Panc1005, 1 h; Panc10.05, one hour treatment; read-out: In-Cell Western Panc10.05 (G12D) Akt (P)
Outline: as §3

[12] = test system: phospho-Akt in HCC827 (Wild-type); assay: In-Cell Western phospho-Akt, HCC827; settings: Homo sapiens, 1 h; HCC827, one hour treatment; read-out: In-Cell Western HCC827 (Wild-type) Akt (P)
Protocol: In-cell phosphorylation assays for Erk and Akt were performed on several of the compounds and exemplary results are shown in Table 3 below using HCC827 and A375 cell lines for wild type K-Ras and Panc1 and Panc10.05 cell lines for G12D K-Ras mutants. Results are expressed in μM and corresponding structures are shown in FIGS. 2A-2G and Examples 1-152, above.
Cells are seeded in complete medium into black sided, clear-bottom 384-well microplates at 3000 cells/[…]/well. Plates are returned to 37° C. CO2 incubator for 18 hr. Drug is made as 200× in DMSO and diluted into medium to 10×. To each well is added 4 ul 10× test article or controls, and plates are returned to the incubator. Final assay DMSO concentration is 0.5%. After one hour, cells are fixed in formaldehyde, rinsed & permeabilized with triton X-100, and blocked with BSA/Goat serum blocking solution. Primary phospho-Akt and phospho-ERK antibodies are added and plates are incubated overnight at 4° C. Plates are rinsed with Tween-20 wash buffer and secondary antibody (Goat anti-rabbit, Thermofisher) is added. After 2 hours, plates are rinsed in Tween-20 wash buffer, and then PBS. Plates are imaged on the Celigo (Nexcelom) and cellular fluorescence is quantitated. Full inhibition of phospho-Akt is achieved with 1 uM BEZ235 (Sellekchem), while full inhibition of phospho-ERK is achieved with 1 uM MEK Inhibitor II Calbiochem). EC50 values are calculated using Graphpad Prism.

T2 sequence (P01116 whole entry G12D): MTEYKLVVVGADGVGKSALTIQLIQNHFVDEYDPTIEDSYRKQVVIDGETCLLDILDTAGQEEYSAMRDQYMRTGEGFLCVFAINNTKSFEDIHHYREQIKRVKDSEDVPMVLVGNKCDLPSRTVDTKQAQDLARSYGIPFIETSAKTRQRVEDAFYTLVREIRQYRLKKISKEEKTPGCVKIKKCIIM
T1 sequence (P01116 whole entry): as the sequence (P01116 whole entry G12D) above, with D12G counted along it

Structure (SMILES)	IC50 (wild type K-Ras)	IC50 (K-Ras G12D)	IC50 [1]	IC50 [2]	IC50 [3]	IC50 [4]	IC50 (Panc1-G12D)	IC50 (Panc10.05-G12D)	IC50 (HCT116-G31D)	EC50 [5]	EC50 [6]	EC50 [7]	EC50 [8]	EC50 [9]	EC50 [10]	EC50 [11]	EC50 [12]
Cc1nn(C)c(C)c1C(=O)Nc1nc(-c2ccc3c(c2)CCC(=O)N3Cc2cccnc2)cs1 [Compound 113, 1,3,5-trimethyl-N-(4-(2-oxo-1-(pyridin-3-ylmethyl)-1,2,3,4-tetrahydroquinolin-6-yl)thiazol-2-yl)-1H-pyrazole-4-carboxamide]	9.6 µM	6.3 µM	> 25 µM	> 25 µM	> 25 µM	14 µM	19 µM	2 µM	11 µM	6 µM	13 µM	> 25 µM	2 µM	> 25 µM	7 µM	> 25 µM	
Cn1cc(C(=O)Nc2nc(-c3ccc4c(c3)CCC(=O)N4)cs2)c(-c2ccccc2)n1 [Compound 29, 1-methyl-N-(4-(2-oxo-1,2,3,4-tetrahydroquinolin-6-yl)thiazol-2-yl)-3-phenyl-1H-pyrazole-4-carboxamide]			> 25 µM	> 25 µM	> 25 µM		> 25 µM	> 25 µM	> 25 µM	21 µM			13 µM	> 25 µM			> 25 µM
Cc1nc(C)c(C(=O)Nc2nc(-c3ccc4c(c3)CCC(=O)N4CCN(C)C)cs2)o1 [Compound 97, N-(4-(1-(2-(dimethylamino)ethyl)-2-oxo-1,2,3,4-tetrahydroquinolin-6-yl)thiazol-2-yl)-2,4-dimethyloxazole-5-carboxamide]	12.6 µM	8.1 µM	> 25 µM	> 25 µM	5 µM	> 25 µM	9 µM	4 µM	5 µM	> 25 µM	8 µM	10 µM	5 µM	6 µM	1.2 µM	12 µM	
COCCN1C(=O)CCc2cc(-c3csc(NC(=O)c4oc(C)nc4C)n3)ccc21 [Compound 95, N-(4-(1-(2-methoxyethyl)-2-oxo-1,2,3,4-tetrahydroquinolin-6-yl)thiazol-2-yl)-2,4-dimethyloxazole-5-carboxamide]	15.4 µM	5.1 µM	> 25 µM	> 25 µM	5 µM	> 25 µM	7 µM	4 µM	4 µM	10 µM	> 25 µM	> 25 µM	10 µM	6 µM	2 µM	14 µM	
Cc1nn(C)cc1C(=O)Nc1nc(-c2ccc3c(c2)CCC(=O)N3Cc2cccnc2)cs1 [Compound 112, 1,3-dimethyl-N-(4-(2-oxo-1-(pyridin-3-ylmethyl)-1,2,3,4-tetrahydroquinolin-6-yl)thiazol-2-yl)-1H-pyrazole-4-carboxamide]	10.7 µM	10 µM	> 25 µM	> 25 µM	4 µM	> 25 µM	5 µM	3 µM	2 µM	17 µM	8 µM	11 µM	4 µM	5 µM	1 µM	18 µM	
